The compounds below were run on MDA-MB-231 human breast cancer cells (assay: Cell proliferation assay (CellTiter-Glo, 72 hours treatment)). Settings: Homo sapiens; MDA-MB-231 cells, 72 hours at 37° C., CellTiter-Glo; read-out: MDA-MB-231 cell proliferation assay (IC50).
Format: cell-based
Experimental: Human tumor cell lines were cultured in the appropriate media (DMEM and RPMI) supplemented with penicillin G (100 U/ml), streptomycin (100 μg/ml), 10% FBS in a humidified atmosphere of 5% CO2 maintained at 37° C. Exponentially growing cells were seeded at 2,500 cells/well in 96 well plates prior to drug treatment. The following day, cells were treated with either DMSO (vehicle control) or eIF4A inhibitors at the appropriate dose for 72 hours at 37° C. Following compound treatment, cell proliferation was assessed by CellTiter-Glo assay (Promega, Madison Wis.) according to the manufacturer's protocol. Dose-response curves were fitted by non-linear regression (sigmoidal dose response model) using KaleidaGraph (Synergy Software, Reading Pa.) and IC50 values were calculated.
To this end, IC50 values of less than 100 nM are labelled as “+++”, from 100 nM to 1000 nM are labelled as “++”, and greater than 1000 nM are labelled as “+” (NA means “not available”).

Row | Compound | IC50
1 | CN(C)C(=O)[C@H]1[C@@H](O)[C@@]2(O)c3nn(C)cc3O[C@@]2(c2ccc(C#N)cc2)[C@@H]1c1ccccc1 (single isomer, unassigned) [23F] | > 1000 nM
2 | COC(=O)C(C[C@H]1C(=O)[C@@]2(O)c3ncc(Cl)cc3O[C@@]2(c2ccc(Br)cc2)[C@@H]1c1ccccc1)C(=O)OC (racemic) [46F, Rac-dimethyl 2-[[(5aR,6S,7R,8aR)-5a-(4-bromophenyl)-3-chloro-8a-hydroxy-8-oxo-6-phenyl-6,7-dihydrocyclopenta[4,5]furo[1,2-b]pyridin-7-yl]methyl]propanedioate] | > 1000 nM
3 | COc1cncc2c1[C@]1(O)[C@@H](CNCC(F)F)[C@H](CO)[C@@H](c3ccccc3)[C@]1(c1ccc(C#N)cc1)O2 (racemic) [182F, Rac-4-((4bR,5R,6R,7S,7aR)-5-(((2,2-difluoroethyl)amino)methyl)-4b-hydroxy-6-(hydroxyl-methyl)-4-methoxy-7-phenyl-4b,5,6,7-tetrahydro-7aH-cyclopenta[4,5]furo[2,3-c]pyridin-7a-yl)benzonitrile] | < 100 nM
4 | CN(C)C(=O)[C@H]1[C@@H](O)[C@@]2(O)c3nn(C)c(Cl)c3O[C@@]2(c2ccc(Br)cc2)[C@@H]1c1ccccc1 (racemic) [37F, Rac-(4aR,5S,6R,7R,7aS)-4a-(4-bromophenyl)-3-chloro-7,7a-dihydroxy-N,N,2-trimethyl-5-phenyl-2,4a,5,6,7,7a-hexahydrocyclopenta[4,5]furo[3,2-c]pyrazole-6-carboxamide] | > 1000 nM
5 | COc1cncc2c1[C@]1(O)[C@H](O)[C@H](C(=O)N3CC4CC(C3)O4)[C@@H](c3ccccc3)[C@]1(c1ccc(Br)cc1)O2 (racemic) [273F, Rac-(6-oxa-3-azabicyclo[3.1.1]heptan-3-yl)((4bS,5R,6R,7S,7aR)-7a-(4-bromophenyl)-4b,5-dihydroxy-4-methoxy-7-phenyl-4b,6,7,7a-tetrahydro-5H-cyclopenta[4,5]furo[2,3-c]pyridin-6-yl)methanone] | < 100 nM
6 | COc1nc(Cl)cc2c1[C@]1(O)[C@@H](CN(C)C)[C@H](CO)[C@@H](c3ccccc3)[C@]1(c1ccc(Br)cc1)O2 (racemic) [209F, Rac-(5aR,6S,7R,8R,8aR)-5a-(4-bromophenyl)-3-chloro-8-((dimethylamino)methyl)-7-(hydroxymethyl)-1-methoxy-6-phenyl-5a,6,7,8-tetrahydro-8aH-cyclopenta[4,5]furo[3,2-c]pyridin-8a-ol] | < 100 nM
7 | COc1ccc([C@@]23Oc4cc(Cl)cnc4[C@]2(O)[C@H](O)[C@H](C(=O)N(C)C)[C@H]3c2ccccc2)cc1 (single isomer, unassigned) [5F] | 100 to 1000 nM
8 | COc1cncc2c1[C@]1(O)[C@H](O)[C@H](CNC(C)(C)C)[C@@H](c3ccccc3)[C@]1(c1ccc(C#N)cc1)O2 (single isomer, unassigned) [290F] | 100 to 1000 nM
9 | O=S(=O)(Cc1ccccc1)[C@H]1[C@@H](O)[C@@]2(O)c3ncc(Cl)cc3O[C@@]2(c2ccc(Br)cc2)[C@@H]1c1ccccc1 (racemic) [93F, Rac-(5aR,6S,7R,8S,8aS)-7-(benzylsulfonyl)-5a-(4-bromophenyl)-3-chloro-6-phenyl-5a,6,7,8-tetrahydro-8aH-cyclopenta[4,5]furo[3,2-b]pyridine-8,8a-diol] | > 1000 nM
10 | N#Cc1ccc([C@@]23Oc4cc(Cl)cnc4[C@]2(O)[C@H](O)[C@H](CN)[C@H]3c2ccccc2)cc1 (racemic) [30F, rac-4-((5aR,6S,7S,8R,8aS)-7-(aminomethyl)-3-chloro-8,8a-dihydroxy-6-phenyl-6,7,8,8a-tetrahydro-5aH-cyclopenta[4,5]furo[3,2-b]pyridin-5a-yl)benzonitrile] | 100 to 1000 nM
11 | N#Cc1ccc([C@@]23Oc4cc(Cl)cnc4[C@]2(O)[C@@H](O)[C@H](CN2CCCC2)[C@H]3c2ccccc2)cc1 (racemic) [41Fc, rac-4-((5aR,6S,7S,8S,8aS)-3-chloro-8,8a-dihydroxy-6-phenyl-7-(pyrrolidin-1-ylmethyl)-6,7,8,8a-tetrahydro-5aH-cyclopenta[4,5]furo[3,2-b]pyridin-5a-yl)benzonitrile] | > 1000 nM
12 | COc1cncc2c1[C@]1(O)[C@H](O)[C@H](CN3[C@@H]4CC[C@H]3COC4)[C@@H](c3ccccc3)[C@]1(c1ccc(C#N)cc1)O2 (single isomer, unassigned) [265F] | 100 to 1000 nM
13 | COc1nc(Cl)cc2c1[C@]1(O)[C@H](O)[C@H](CN(C)C)[C@@H](c3ccccc3)[C@]1(c1ccc(C(F)F)cc1)O2 (racemic) [143F, Rac-(5aR,6S,7S,8R,8aS)-3-chloro-5a-(4-(difluoromethyl)phenyl)-7-((dimethylamino)methyl)-1-methoxy-6-phenyl-5a,6,7,8-tetrahydro-8aH-cyclopenta[4,5]furo[3,2-c]pyridine-8,8a-diol] | < 100 nM
14 | COc1cncc2c1[C@]1(O)[C@H](O)[C@H](C(=O)N3CCC(F)(F)CC3)[C@@H](c3ccccc3)[C@]1(c1ccc(Br)cc1)O2 (racemic) [135F, Rac-((4bS,5R,6R,7S,7aR)-7a-(4-bromophenyl)-4b,5-dihydroxy-4-methoxy-7-phenyl-4b,6,7,7a-tetrahydro-5H-cyclopenta[4,5]furo[2,3-c]pyridin-6-yl)(4,4-difluoropiperidin-1-yl)methanone] | < 100 nM
15 | CN(C)C(=O)[C@H]1[C@@H](O)[C@@]2(O)c3cnc(C#N)cc3O[C@@]2(c2ccc(C#N)cc2)[C@@H]1c1ccccc1 (racemic) [14F, rac-(5aR,6S,7R,8R,8aS)-3-cyano-5a-(4-cyanophenyl)-8,8a-dihydroxy-N,N-dimethyl-6-phenyl-5a,7,8,8a-tetrahydro-6H-cyclopenta[4,5]furo[3,2-c]pyridine-7-carboxamide] | 100 to 1000 nM
16 | COc1cncc2c1[C@]1(O)[C@H](O)[C@H](CN3CCCC3)[C@@H](c3ccccc3)[C@]1(c1ccc(C#N)cc1)O2 (racemic) [72F, rac-4-((4bS,5R,6S,7S,7aR)-4b,5-dihydroxy-4-methoxy-7-phenyl-6-(pyrrolidin-1-ylmethyl)-4b,5,6,7-tetrahydro-7aH-cyclopenta[4,5]furo[2,3-c]pyridin-7a-yl)benzonitrile] | 100 to 1000 nM
17 | CCN(CC)C[C@H]1[C@@H](O)[C@@]2(O)c3c(cc(Cl)nc3OC)O[C@@]2(c2ccc(C#N)cc2)[C@@H]1c1ccccc1 (racemic) [159Fb, Rac-4-((5aR,6S,7S,8R,8aS)-3-chloro-7-((diethylamino)methyl)-8,8a-dihydroxy-1-methoxy-6-phenyl-6,7,8,8a-tetrahydro-5aH-cyclopenta[4,5]furo[3,2-c]pyridin-5a-yl)benzonitrile] | < 100 nM
18 | COc1cncc2c1[C@]1(O)[C@@H](CN3CC4(COC4)C3)[C@H](CO)[C@@H](c3ccccc3)[C@]1(c1ccc(Br)cc1)O2 (racemic) [compound 201, Rac-(4bR,5R,6R,7S,7aR)-5-((2-oxa-6-azaspiro[3.3]heptan-6-yl)methyl)-7a-(4-bromophenyl)-6-(hydroxymethyl)-4-methoxy-7-phenyl-5,6,7,7a-tetrahydro-4bH-cyclopenta[4,5]furo[2,3-c]pyridin-4b-ol] | < 100 nM
19 | COc1nc(Cl)cc2c1[C@]1(O)[C@H](O)[C@H](CN3CCN(C)CC3)[C@@H](c3ccccc3)[C@]1(c1ccc(C#N)cc1)O2 (single isomer, unassigned) [198Fa] | < 100 nM
20 | COc1nc(C#N)cc2c1[C@]1(O)[C@H](O)[C@H](CN3CC(F)C3)[C@@H](c3ccccc3)[C@]1(c1ccc(C#N)cc1)O2 (racemic) [211Fa, Rac-(5aR,6S,7S,8R,8aS)-5a-(4-cyanophenyl)-7-((3-fluoroazetidin-1-yl)methyl)-8,8a-dihydroxy-1-methoxy-6-phenyl-5a,7,8,8a-tetrahydro-6H-cyclopenta[4,5]furo[3,2-c]pyridine-3-carbonitrile] | < 100 nM
21 | COc1cncc2c1[C@]1(O)[C@H](O)[C@H](CNCC(F)(F)F)[C@@H](c3ccccc3)[C@]1(c1ccc(C#N)cc1)O2 [291F, 4-((4bS,5R,6S,7S,7aR)-4b,5-dihydroxy-4-methoxy-7-phenyl-6-(((2,2,2-trifluoroethyl)amino)methyl)-4b,5,6,7-tetrahydro-7aH-cyclopenta[4,5]furo[2,3-c]pyridin-7a-yl)benzonitrile] | 100 to 1000 nM
22 | COc1nc(C#N)cc2c1[C@]1(O)[C@H](O)[C@H](CN3CCC(F)CC3)[C@@H](c3ccccc3)[C@]1(c1ccc(Br)cc1)O2 (racemic) [156Fa, Rac-(5aR,6S,7S,8R,8aS)-5a-(4-bromophenyl)-7-((4-fluoropiperidin-1-yl)methyl)-8,8a-dihydroxy-1-methoxy-6-phenyl-5a,7,8,8a-tetrahydro-6H-cyclopenta[4,5]furo[3,2-c]pyridine-3-carbonitrile] | < 100 nM
23 | COc1cncc2c1[C@]1(O)[C@@H](CNC3COC3)[C@H](CO)[C@@H](c3ccccc3)[C@]1(c1ccc(C#N)cc1)O2 (racemic) [186F, Rac-4-((4bR,5R,6R,7S,7aR)-4b-hydroxy-6-(hydroxymethyl)-4-methoxy-5-((oxetan-3-ylamino)-methyl)-7-phenyl-4b,5,6,7-tetrahydro-7aH-cyclopenta[4,5]furo[2,3-c]pyridin-7a-yl)-benzonitrile] | < 100 nM
24 | CN(C)C(=O)[C@H]1[C@@H](O)[C@@]2(O)c3ncc(Cl)cc3O[C@@]2(c2ccc(OC(F)(F)F)cc2)[C@@H]1c1ccccc1 (single isomer, unassigned) [17F] | 100 to 1000 nM

Same assay, conditions: MDA-MB-231 cells, 72 hours at 37° C., CellTiter-Glo; read-out: MDA-MB-231 cell proliferation assay (IC50)

Row | Compound | IC50
25 | COc1cncc2c1[C@]1(O)[C@H](O)[C@H](CN(C)C)[C@@H](c3ccccc3)[C@]1(c1ccc(C#N)cc1)O2 (single isomer, unassigned) [103F] | < 100 nM
